# From patent US20180244653A1, “SELECTIVE ALPHA-7 NICOTINIC RECEPTOR AGONISTS AND METHODS FOR MAKING AND USING THEM” (THE REGENTS OF THE UNIVERSITY OF CALIFORNIA, priority 2015, published 2018)
# Tests used:
# Format in all cases: in vivo
# [1] = system: scopolamine-induced amnesic mice; test: Modified Y-maze test; conditions: i.p. 1 h before, scopolamine 1 mg/kg, doses as in the sentence
# Experimental: The modified Y-maze test was performed to evaluate spatial working memory. The experiment was divided into 3 sessions; (i) IND8 at 5, 10, and 50 μmol/kg or 1.5, 2.9, and 14.7 mg/kg doses, (ii) QND8 at 5, 10, and 50 μmol/kg or 1.4, 2.7, 13.5 mg/kg doses, and (iii) IND8 and QND8 at dose of 25 μmol/kg or 7.3 and 6.8 mg/kg, respectively and PNU-282987 at […] or 3, 10 mg/kg doses.
# FIG. 21 illustrates the percentage of unfamiliar arm exploration in modified Y-maze of IND8 (FIG. 21A), QND8 (FIG. 21B), and IND8, QND8, PNU-282987 (FIG. 21C). IND8, QND8, PNU-282987, vehicle (15% Tween80, SH) and tacrine (TC) were injected 1 h and scopolamine (SC) 30 min before sample phase, respectively. Each mouse was placed at the end of one arm and allowed to access 2 arms of Y-maze for 5 min in sample phase. After a 30 min period, the mouse was allowed to explore 3 arms for 5 min. The number of entries for each arm was recorded and the percentage of unfamiliar arm exploration was calculated. Data represented in means±standard errors (SE).
# Male ICR mice (6-weeks of age) were housed in 5 per cage with free access to food and tap water under 12 h light and dark cycle (light on 6:00 to 18:00) in a temperature and humidity controlled room. They were acclimated in a laboratory at least 7 days prior to starting experiments. The experimental protocols were approved by the Animal Care and Use Committee of KhonKaen University, Thailand.
# Tacrine hydrochloride (Sigma-Aldrich, St. Louis, Mo.), PNU-282987 hydrochloride (Alamone, Jerusalem, Israel) and test compounds were prepared as suspensions by using 15% tween 80 in distilled water as a vehicle, whereas scopolamine hydrochloride (Sigma-Aldrich, St. Louis, Mo.) and methyllycaconitine citrate (MLA) (Abcam, Cambridge, England) were prepared as a solution by dissolving with 0.9% normal saline solution (NSS). All compounds were administered by intraperitoneal (i.p.) injection in the amount of 5 mL/kg. Test compounds were injected 1 h and scopolamine was administered 30 min before the experiments, whereas MLA was injected 5 min before the test compounds.
# (§1) Amnesia was induced pharmacologically in mice via scopolamine injection (single dose) for 30 min prior to start the experiments. They were divided into vehicle group: receiving 15% tween 80 and 0.9% NSS, amnesia group: receiving scopolamine 1 mg/kg, standard positive control group receiving tacrine 1 mg/kg, and test group: receiving IND8, QND8 at dose 5, 10, 25, 50 μmol/kg, or PNU-282987 3, 10 mg/kg, single dose. All mice were acclimated in an experimental room at least 30 min before the experiments.
# The maze in this experiment is the same apparatus using in locomotor activity test except there is the black partition to close one of three arms. The mice were randomly separated into different treatment groups. They were injected with test compounds and scopolamine at 1 h and 30 min, respectively, before the sample phase. In this phase which one arm of Y-maze was closed by the black partition, each mouse was placed at the end of one arm and allowed to move through 2 arms for 5 min to get familiar with the two opened arms. After 30 min of resting, all arms were opened and the mouse was allowed to move freely through all 3 arms. The maze area and the partition were cleaned with 70% ethanol between each experiment to remove olfactory cues. The number of entries in each arm was counted visually if mice accessed into each arm at least 10 cm. The percentage of unfamiliar arm exploration was calculated as following equation: […]
# [2] = system: scopolamine-induced amnesic mice; test: Water maze test; conditions: i.p., IND8 25 and 50 μmol/kg, QND8 25 μmol/kg
# Experimental: The water maze test, a model for spatial learning and reference memory, related to function in the hippocampus, was also used as a study model in which mice locate a hidden platform after training session. Mice were trained to locate a hidden platform until a steady state measured by a shortened escape latency time was reached.
# The average swimming time in a target quadrant where the platform had previously been placed was measured in the test day, day 8 (FIG. 25).
# FIG. 25 illustrates the average swimming time in the target quadrant of water maze test. Data are presented in means±SE. IND8, QND8, PNU-282987, vehicle (15% Tween80, SH) and tacrine (TC) were injected 1 h and scopolamine (SC) 30 min before testing, respectively.
# A black circular tank (diameter 70 cm; height 28 cm) was divided into 4 quadrants with a removable escape platform (6×7.5×14 cm) centered in a target quadrant. The tank was filled with water to 15 cm height and the platform was located 1 cm below the water surface.
# Mice were trained from 5-7 days to get the steady state of escape latency. During day 1 to 5, each mouse was trained to swim from each quadrant with 1 min maximum time and allowed to stay on the platform for 10 sec. The mouse is placed on the platform for 10 s if it cannot find the hidden platform within 1 min. The escape latency time from each quadrant was measured. […] The probe test began when the escape latency time reached the steady state. The platform was removed and time spent in the target quadrant was measured. On the next day, all conditions were the same as probe test, but the platform was brought back to remind the mice of the target quadrant location. All mice were injected with test compounds 1 h and scopolamine 30 min before testing. The swimming time in the target quadrant was measured.
# [3] = system: scopolamine-induced amnesic mice; test: Object recognition test (ORT); conditions: i.p., tacrine 1 mg/kg, IND8, QND8 10 and 50 μmol/kg
# Experimental: FIG. 22 illustrates exploration time to familiar (F) and novel (N) objects of IND8 (A) and QND8 (B) in test phase of ORT. Each mouse was allowed to explore an open field apparatus for 5 min in a habituation phase. After a 24 h period, IND8, QND8, PNU-282987, vehicle (15% Tween80, SH) and tacrine (TC) were injected 1 h and scopolamine (SC) 30 min before sample phase, respectively. Each mouse explored 2 identical objects in the sample phase for 5 min and then placed in its cage for 10 min before the test phase began. In the 5 min of test phase, one of the objects was changed to a new one. The exploration time of these objects was recorded.
# In both data sets, a discrimination index (DI) was calculated and used to evaluate the ability of mice to discriminate between familiar and novel objects. Data are represented in FIG. 23.
# as §1
# The apparatus was made of black polyvinyl chloride (52×52×40 cm). The objects used in this experiment had different visual shapes and colors to be discriminated. They were placed 10 cm from the side wall in the balanced manner. The box area and objects were cleaned with 70% ethanol between each experiment to remove odor cues.
# The mice were randomly divided into different treatment groups. They were allowed to freely explore the open field apparatus for 5 min for habituation in the day prior to the experiments to get familiar with the apparatus. On the experimental day, test compounds injected 1 h, whereas scopolamine administered 30 min before the sample phase (acquisition trial). The mice were placed in the apparatus to explore 2 identical objects. After 10 min of acclimation in their cages, one object was changed to a new one, and mice were allowed to explore these objects for 5 min in the test phase (retention trial). The exploration time of each object was recorded if the nose of mice approached the objects within 3 cm or touched the objects. The discrimination index (DI) was calculated by using (TN−TF)/(TN+TF); TN and TF represented exploration time of new and familiar objects, respectively.
compound,measurement,setting,value
"Nc1c2c(nc3ccccc13)CCCC2 [Tacrine, reference compound]","Unfamiliar arm exploration / cognitive deficit, modified Y-maze vs scopolamine-treated group",[1],reversed the cognitive deficit induced by scopolamine
same,"Unfamiliar arm exploration / cognitive deficit, modified Y-maze vs scopolamine-treated group",[1]; listed as tacrine,can improve cognitive deficits induced by scopolamine in all test models
same,"Time in target quadrant, water maze vs scopolamine-treated group",[2],significantly improved cognitive deficits
same,"Time in target quadrant, water maze vs scopolamine-treated group",[2]; listed as tacrine,can improve cognitive deficits induced by scopolamine in all test models
same,"Discrimination index / episodic short-term memory, ORT vs scopolamine-treated group",[3],significantly improved episodic short-term memory
same,"Discrimination index / episodic short-term memory, ORT vs scopolamine-treated group",[3]; listed as tacrine,can improve cognitive deficits induced by scopolamine in all test models
